Results: US20240109898A1, “SUBSTITUTED PYRAZOLO[1,5-A]PYRIMIDINE-7-AMINE DERIVATIVES, COMPOSITIONS AND PHARMACEUTICAL USES THEREOF” (SHANGHAI HAIYAN PHARMACEUTICAL TECHNOLOGY CO., LTD., priority 2021, published 2024)

Columns and labels:
Format in all cases: biochemical
CDK9/CycT = CDK9/CycT (Homo sapiens (Human), UniProt P50750); test: LANCE Ultra kinase activity inhibition assay, CDK9/CycT; settings: ATP 10 μM, highest compound concentration 1 μM
Method: (§1) In the following LANCE Ultra test methods, kinase reagents were purchased from Carna Bioscience, reaction substrates and detection reagents were purchased from PerkinElmer, and the remaining reagents were purchased from Thermo scientific.
The inhibiting effects on the kinase activity of CDK1/CycB (Carna bioscience, #04-102), CDK2/CycA (Carna bioscience, #04-103) and CDK9/CycT (Carna bioscience, #04-110) were determined by using LANCE Ultra method.
The kinase activity test was performed using a system (10 μL) containing the following components: substrate diluent prepared by mixing CDK kinase diluent, Ulight-Myelic basic protein (Perkin Elmer, #TRF-0109, hereinafter referred to as U-MBP) and ATP (Thermo scientific, #PV3227); and the compounds (i.e., analyte) prepared in the examples of the present disclosure. The assay for each kinase includes three test groups, i.e., a background group (Blank), a non-inhibition group (PC), and compound testing group (Test). The components included in each test group were as follows:
(§2) Working concentrations of the respective components of the Test groups in different kinase reactions were as follows.
(§3) Compounds: 10 mM of the compound to be tested was dissolved at room temperature and diluted with DMSO to gradient concentrations, followed by diluting with deionized water to prepare a 4× working solution of the compound, and the content of DMSO was 2%. The highest concentration of compound used in the CDK1 and CDK2 assays was 10 μM, and that in CDK9 assay was 1 μM.
1.33×reaction buffer: the components include 26.7 mM of MOPS, 6.67 mM of MgCl2, and 0.0133% Tween-20, which were stored in a 4° C. refrigerator and protected from light after preparation. Freshly prepared DTT was added to a final concentration of 5.33 mM before use.
(§4) The working concentration of DMSO in the reaction was 0.5%.
(§5) The above-mentioned components, after being mixed, were placed on a shaker and incubated at room temperature in the dark for 1 h. 10 μL of test solution was then added to all test groups (including Blank, PC and Test groups).
10 μL of test solution contains the following components: 16 mM of EDTA (Thermo scientific, #15575), 1 nM of phosphorylated U-MBP protein antibody (Perkin Elmer, #TRF-0201), and 1× detection damping fluid (Perkin Elmer, #CR97-100).
After the test solution was added, the solution was placed on a shaker and continually incubated at room temperature for 1 h in the dark. At the end of incubation, Victor X5 fluorescence microplate reader of Perkin Elmer was used to read the signal; the wavelength of excitation light was 320 nm, and the wavelengths of emission light were 615 nm and 665 nm. The inhibition rate was calculated as below.
1. For all groups, a value of 665 nm/615 nm (hereinafter referred to as Ratio) was calculated, and an inhibition rate was calculated based on the Ratio of each group;
(§6) 2. Inhibition rate=(PCRatio-TestRatio)/(PCRatio-BlankRatio)*100%; and
(§7) 3. XLFIT 5.0 software (IDBS, UK) was used to fit a graph by using the logarithmic value of the compound concentration as the X-axis and the inhibition rater as the Y-axis, and a four-parameter model was used to calculate the half inhibitory concentration IC50 of the compound.

CDK1/CycB = CDK1/CycB (Homo sapiens (Human), UniProt P06493); test: LANCE Ultra kinase activity inhibition assay, CDK1/CycB; settings: ATP 4 μM, highest compound concentration 10 μM
Excerpt: as §1
(§8) The assay for each kinase includes three test groups, i.e., a background group (Blank), a non-inhibition group (PC), and compound testing group (Test). The components included in each test group were as follows:
as §2, §3, §4, §5
(§9) After the test solution was added, the solution was placed on a shaker and continually incubated at room temperature for 1 h in the dark. […] The inhibition rate was calculated as below.
as §6, §7

CDK2/CycA = CDK2/CycA (Homo sapiens (Human), UniProt P24941); test: LANCE Ultra kinase activity inhibition assay, CDK2/CycA; settings: ATP 10 μM, highest compound concentration 10 μM
Excerpt: as §1, §8, §2, §3, §4, §5, §9, §6, §7

Chain of CDK1/CycB (P06493 whole entry): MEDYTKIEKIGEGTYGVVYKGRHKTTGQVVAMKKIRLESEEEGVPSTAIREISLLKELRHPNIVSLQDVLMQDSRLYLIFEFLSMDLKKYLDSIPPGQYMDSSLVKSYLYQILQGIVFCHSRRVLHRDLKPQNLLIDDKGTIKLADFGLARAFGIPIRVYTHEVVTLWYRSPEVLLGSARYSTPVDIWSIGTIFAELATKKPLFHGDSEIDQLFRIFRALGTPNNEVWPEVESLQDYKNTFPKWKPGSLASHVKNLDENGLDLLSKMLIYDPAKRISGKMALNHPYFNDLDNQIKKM
Chain of CDK1/CycB (P14635 whole entry partner): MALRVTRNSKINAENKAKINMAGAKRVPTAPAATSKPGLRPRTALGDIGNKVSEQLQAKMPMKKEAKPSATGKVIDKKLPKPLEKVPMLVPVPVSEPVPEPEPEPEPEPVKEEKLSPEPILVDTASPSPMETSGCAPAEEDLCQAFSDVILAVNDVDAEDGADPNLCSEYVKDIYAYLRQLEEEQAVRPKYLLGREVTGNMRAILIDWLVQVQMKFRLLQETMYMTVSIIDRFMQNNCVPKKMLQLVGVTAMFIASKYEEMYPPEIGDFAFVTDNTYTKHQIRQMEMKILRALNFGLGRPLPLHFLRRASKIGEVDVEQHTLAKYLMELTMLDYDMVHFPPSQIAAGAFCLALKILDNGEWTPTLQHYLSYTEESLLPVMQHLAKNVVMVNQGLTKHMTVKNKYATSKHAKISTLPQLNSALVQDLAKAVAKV
Chain of CDK9/CycT (P50750 whole entry): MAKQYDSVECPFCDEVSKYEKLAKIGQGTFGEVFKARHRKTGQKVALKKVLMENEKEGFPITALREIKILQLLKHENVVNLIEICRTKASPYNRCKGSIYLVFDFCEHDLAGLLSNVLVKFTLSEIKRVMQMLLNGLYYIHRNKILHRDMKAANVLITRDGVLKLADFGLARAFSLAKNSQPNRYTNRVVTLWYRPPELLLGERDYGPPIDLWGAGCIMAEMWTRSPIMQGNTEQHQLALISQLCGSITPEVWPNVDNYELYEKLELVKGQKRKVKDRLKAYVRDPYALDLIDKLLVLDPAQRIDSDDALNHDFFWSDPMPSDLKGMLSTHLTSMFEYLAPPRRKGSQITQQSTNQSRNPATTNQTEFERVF
Chain of CDK9/CycT (O60563 whole entry partner): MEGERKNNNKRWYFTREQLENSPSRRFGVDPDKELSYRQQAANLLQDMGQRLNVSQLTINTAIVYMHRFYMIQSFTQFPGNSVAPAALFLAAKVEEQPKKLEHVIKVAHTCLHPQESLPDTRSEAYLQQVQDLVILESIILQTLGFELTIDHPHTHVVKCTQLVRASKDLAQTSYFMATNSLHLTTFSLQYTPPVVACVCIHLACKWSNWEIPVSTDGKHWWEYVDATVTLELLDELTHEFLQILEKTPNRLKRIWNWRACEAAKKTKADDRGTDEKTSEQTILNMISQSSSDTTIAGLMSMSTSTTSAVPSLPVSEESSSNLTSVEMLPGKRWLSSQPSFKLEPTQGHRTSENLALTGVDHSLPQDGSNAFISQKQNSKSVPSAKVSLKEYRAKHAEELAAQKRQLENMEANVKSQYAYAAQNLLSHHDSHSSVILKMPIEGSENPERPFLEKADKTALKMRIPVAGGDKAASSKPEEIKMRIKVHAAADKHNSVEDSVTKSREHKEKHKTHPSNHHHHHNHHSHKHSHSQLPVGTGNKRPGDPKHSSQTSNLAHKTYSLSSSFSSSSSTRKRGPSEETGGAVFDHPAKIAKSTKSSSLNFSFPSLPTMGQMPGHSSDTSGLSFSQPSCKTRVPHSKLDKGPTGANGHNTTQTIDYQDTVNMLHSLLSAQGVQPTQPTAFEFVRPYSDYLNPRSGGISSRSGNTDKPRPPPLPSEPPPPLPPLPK

Row | Compound | IC50 (CDK9/CycT) [µM] | IC50 (CDK1/CycB) [µM] | IC50 (CDK2/CycA) [µM]
1 | CC(C)(c1cc(N[C@H]2CC[C@H](N)C2)n2ncc(F)c2n1)C1CC1 [Compound Z-36] | 0.006 | 0.924 | 2.11
2 | Cc1cnn2c(N[C@H]3CC[C@H](N)C3)cc(CC3(C)CC3)nc12 [Compound Z-25] | 0.021 | 9.87 | 8.71
3 | N[C@H]1CC[C@H](Nc2cc(C(C3CC3)C3CC3)nc3c(C4CC4)cnn23)C1 [Compound Z-14] | 0.042 | 1.61 | 2.55
4 | CC[C@@H](c1cc(N[C@H]2CC[C@H](N)C2)n2nccc2n1)C1CC1 [Compound Z-28-P1] | 0.006 | 2.05 | 4.51
5 | C[C@@H](c1cc(N[C@H]2CC[C@H](N)C2)n2nccc2n1)C1CC1 [Compound Z-5-1] | 0.023 |  | 
6 | CCc1cnn2c(N[C@H]3CC[C@H](N)C3)cc(C(C)C3CC3)nc12 (stereo partly drawn) [Compound Z-20] | 0.034 | 2.42 | 4.39
7 | N[C@H]1CC[C@H](Nc2cc(C(C3CC3)C3CC3)nc3c(C(F)(F)F)cnn23)C1 [Compound Z-33] | 0.006 | 0.347 | 0.355
8 | Cc1cnn2c(N[C@H]3CC[C@H](N)C3)cc([C@@H](C)C3(C)CC3)nc12 [Compound Z-26-P2] | 0.078 | > 10 | > 10
9 | CC(c1cc(N[C@H]2CC[C@H](N)CC2)n2nccc2n1)C1CC1 (stereo partly drawn) [Compound Z-21] | 0.029 | 4.37 | 3.29
10 | N#Cc1cnn2c(N[C@H]3CC[C@H](N)C3)cc(C(C3CC3)C3CC3)nc12 [Compound Z-4] | 0.014 | 0.716 | 0.828
11 | C[C@@H](c1cc(N[C@H]2CC[C@H](N)C2)n2nccc2n1)C1CCC1 [Compound Z-11-P2] | 0.03 |  | 
12 | CC(C)(c1cc(N[C@H]2CC[C@H](N)C2)n2ncc(Cl)c2n1)C1CC1 [Compound Z-35] | 0.018 | 1.5 | 1.56
13 | CC1(Cc2cc(N[C@H]3CC[C@H](N)C3)n3ncc(Cl)c3n2)CC1 [Compound Z-29] | 0.011 | 1.89 | 2.06
14 | CC1(Cc2cc(N[C@H]3CC[C@H](N)C3)n3nccc3n2)CC1 [Compound Z-17] | 0.06 | 8.45 | > 10
15 | N[C@H]1CC[C@H](Nc2cc(C(C3CC3)C3CC3)nc3c(F)cnn23)C1 [Compound Z-15] | 0.005 | 0.293 | 0.367
16 | Cc1cnn2c(N[C@H]3CC[C@H](N)C3)cc(C(C)(C)C3CC3)nc12 [Compound Z-34] | 0.036 | 8.09 | > 10
17 | C=CC(C)(C)c1cc(N[C@H]2CC[C@H](N)C2)n2ncc(C)c2n1 [Compound Z-19] | 0.092 | > 10 | > 10
18 | CC[C@H](c1cc(N[C@H]2CC[C@H](N)C2)n2ncc(C)c2n1)C1CC1 [Compound Z-30-P1] | 0.01 | 1.12 | 0.968
19 | CC[C@@H](c1cc(N[C@H]2CC[C@H](N)C2)n2ncc(C)c2n1)C1CC1 [Compound Z-30-P2] | 0.022 | 3.54 | 4.91
20 | C=Cc1cnn2c(N[C@H]3CC[C@H](N)C3)cc(C(C)C3CC3)nc12 (stereo partly drawn) [Compound Z-60] | 0.024 | 2.49 | 3.2
21 | CC(c1cc(N[C@H]2CC[C@H](N)C2)n2nccc2n1)C1CCCC1 (stereo partly drawn) [Compound Z-13] | 0.018 | 1.34 | 7.62
22 | N[C@H]1CC[C@H](Nc2cc(C(C3CC3)C3CC3)nc3c(Cl)cnn23)C1 [Compound Z-2] | 0.006 | 0.161 | 0.191
23 | C[C@@H](c1cc(N[C@H]2CC[C@H](N)C2)n2nccc2n1)C1(C)CC1 [Compound Z-27-P1] | 0.047 | 1.21 | > 10
24 | CC(c1cc(N[C@H]2CC[C@H](N)C2)n2nccc2n1)C1CCC1 (stereo partly drawn) [Compound Z-11] | 0.022 |  | 
25 | CC(c1cc(N[C@H]2CC[C@H](N)C2)n2nccc2n1)C1(C)CC1 (stereo partly drawn) [Compound Z-27] | 0.009 | 0.772 | 2.82
26 | Cc1cnn2c(N[C@H]3CC[C@H](N)C3)cc([C@H](C)C3CCC3)nc12 (single isomer, unassigned) [Compound Z-38-P1] | 0.04 |  | 
27 | CC(c1cc(N[C@H]2CC[C@H](N)C2)n2nccc2n1)C1CC1 (stereo partly drawn) [Compound Z-5] | 0.017 |  | 

The next lines start with the values.

Row | IC50 (CDK9/CycT) [µM] | IC50 (CDK1/CycB) [µM] | IC50 (CDK2/CycA) [µM] | Compound
28 | 0.058 | > 10 | > 10 | CCC(c1cc(N[C@H]2CC[C@H](NC(C)=N)C2)n2nccc2n1)C1CC1 (stereo partly drawn) [Compound Z-69]
29 | 0.017 | 1.54 | 4.72 | CC(c1cc(N[C@H]2C[C@H](N)C2)n2nccc2n1)C1CC1 (stereo partly drawn) [Compound Z-62]
30 | 0.013 | 2.97 | 3.77 | N[C@H]1CC[C@H](Nc2cc([C@H](F)C3CCC3)nc3ccnn23)C1 [Compound Z-41-P2]
31 | 0.047 | 4.59 | > 10 | N[C@H]1CC[C@H](Nc2cc([C@@H](F)C3CCC3)nc3ccnn23)C1 [Compound Z-41-P1]
32 |  | 8.82 | > 10 | NN1CCC(Nc2cc(C(C3CC3)C3CC3)nc3ccnn23)C1 (stereo not drawn) [Compound Z-59]
33 | 0.022 | 3.3 | 8.5 | N[C@H]1CC[C@H](Nc2cc(C(F)C3CCCC3)nc3ccnn23)C1 (stereo partly drawn) [Compound Z-42]
34 | 0.019 | 1.24 | 2.3 | CC(c1cc(N[C@H]2CC[C@H](NC(=N)N)C2)n2ncc(Cl)c2n1)C1CC1 (stereo partly drawn) [Compound Z-65]
35 | 0.015 | 2.31 | 3.46 | CC(=N)N[C@H]1CC[C@H](Nc2cc(C(C)C3CC3)nc3c(Cl)cnn23)C1 (stereo partly drawn) [Compound Z-64]
36 | 0.032 | 7.15 | 6.15 | Cc1cnn2c(N[C@H]3CC[C@H](N)C3)cc(CC3CC3)nc12 [Compound Z-52]
37 | 0.064 | 6.57 | > 10 | N[C@H]1CC[C@H](Nc2cc(CC3CCC3)nc3ccnn23)C1 [Compound Z-50]
38 | 0.058 | 4.97 | > 10 | C=CCC(C)(C)c1cc(N[C@H]2CC[C@H](N)C2)n2nccc2n1 [Compound Z-57]
39 | 0.018 | 2.57 | 3.68 | CC(=N)N[C@H]1CC[C@H](Nc2cc(C(C3CC3)C3CC3)nc3c(F)cnn23)C1 [Compound Z-73]
40 | 0.017 |  |  | Cc1cnn2c(N[C@H]3CC[C@H](N)C3)cc(C(C)C3CCC3)nc12 (stereo partly drawn) [Compound Z-38]
41 | 0.048 | > 10 | > 10 | Cc1cnn2c(N[C@H]3CC[C@H](N)C3)cc(C(C)(C)C3CCC3)nc12 [Compound Z-40]
42 | 0.417 | > 10 | > 10 | CC(c1cc(N[C@H]2C[C@@H](N)C2)n2nccc2n1)C1CC1 (stereo partly drawn) [Compound Z-74]
43 | 0.024 | 1.82 | > 10 | C[C@@H](c1cc(N[C@H]2C[C@H](N)C2)n2nccc2n1)C1CC1 [Compound Z-62-P2]
44 | 0.062 | > 10 | > 10 | COC(c1cc(N[C@H]2CC[C@H](N)C2)n2nccc2n1)C1CC1 (stereo partly drawn) [Compound Z-49]
45 | 0.035 | 1.04 | 1.91 | CC(c1cc(NC2CCN(N)C2)n2ncc(Cl)c2n1)C1CC1 (stereo not drawn) [Compound Z-47]
46 | 0.016 |  |  | Cc1cnn2c(N[C@H]3CC[C@H](N)C3)cc([C@H](C)C3CCC3)nc12 (single isomer, unassigned) [Compound Z-38-P2]
